From article PMC3498381, “Isolated Toll-like Receptor Transmembrane Domains Are Capable of Oligomerization” (PLoS ONE, 2012)
No end group written: not given here.

Experiments:
[1] = tested on: homotypic TMD-TMD interaction (ToxR / ctx promoter / β-galactosidase reporter in FHK12 E. coli); experiment: Homotypic ToxR reporter assay (β-galactosidase); type: cell-based; conditions: β-galactosidase Miller units normalized to GpA signal and expression levels; FHK12 E. coli; 3 replicates with >6 measurements each, N in table
Experimental: . Various plasmid constructs for this assay make it possible to monitor both homotypic and heterotypic interactions that are driven by TMD-TMD association (Fig. S1).
We first investigated homotypic interactions because the majority of the TLR family members function as homodimers. […] This ΔTM construct consists of the same maltose binding protein and ToxR domain, but lacks a TMD for proper membrane insertion (Fig. S2). Statistical analysis using the Tukey-Kramer test was performed to analyze any significant differences between all possible pairs of average interaction potentials (Table S2). […] Among the TLRs, no discernable differences in grouping based on statistical analysis at p = 0.05 were indicated as all receptors belonged to multiple groups, except for TLR1, which with the lowest interaction potential among the family of receptors only existed in one group (Table S1).
Figure 2 Toll-like Receptor Transmembrane Domain Homotypic Interactions. (A) The ToxR assay was used to study homotypic interactions of the TLR TMDs. A chimeric protein expressing the TMD of interest was monitored through β-galactosidase activity. In all cases, we saw that the TLRs have interaction potential solely from TMD-TMD interactions. Each TLR TMD interaction measurement analysis was performed on 3 technical replicates with >6 measurements for each replicate. Error bars depict the standard error of the mean (n – Table S1). Western blots staining for MBP were performed to monitor expression levels of the constructs – (B) chimeric maltose binding protein expression, (C) endogenous maltose binding protein expression. All samples were normalized to the GpA signal and expression levels.
Briefly, the ToxR plasmids containing the TMD of interest (200 ng) were transformed into chemically competent FHK12 E. coli (200 µL) by incubating on ice for 30 min, heat shock at 42°C for 90 s, incubation on ice for 2 min, and addition of SOC media (800 µL) followed by incubation with shaking for 1 h at 37°C. This transformation mixture (50 µL) was then spread on LB agar plates containing cholaramphenicol (30 µg/mL) and ampicillin (100 µg/mL) and grown overnight at 37°C. Single colonies were selected from the plates in triplicate and added to 5 mL of LB media containing cholaramphenicol (30 µg/mL), ampicillin (100 µg/mL), and arabinose (0.0025%). These cultures were incubated overnight (16–20 h) with shaking at 37°C. The β-galactosidase activity was monitored using a Beckman Coulter DTX 880 plate-reader. First 5 µL of each culture was plated >6 times in a clear 96-well flat bottom culture plate (Sarstedt) containing 100 µL of Z-buffer/chloroform (1% β-mercaptoethanol, 10% chloroform, 89% Z buffer: […], 10 mM potassium chloride, 1 mM magnesium sulfate, pH 7.0). The cell densities of each well were recorded by measuring the OD595. Bacteria were lysed by the addition of 50 µL Z-buffer/SDS (1.6% sodium dodecyl sulfate w/v in Z-buffer) and shaking at 28°C for 10 min. Enzymatic activity was measured by adding 50 µL of Z-buffer/ortho-Nitrophenyl-β-[…] (ONPG) (0.4% ONPG w/v in Z-buffer) and monitoring the reaction at 405 nm for a period of 20 min at 30 s intervals. Miller units were calculated using the equation: [drawing 1]
Western blotting was performed with antiserum recognizing the maltose-binding protein moiety of the constructs (Abcam). Data were normalized to GpA Miller Units and protein expression levels using ImageJ (NIH) as reported previously.

[2] = tested on: TLR2 TMD (functional ToxR chimera); experiment: Dominant-negative (heterotypic) ToxR assay, TLR2 as dominant phenotype; type: cell-based; conditions: Miller units normalized to poly-Leu* = 1 and corrected for expression, lower = stronger interaction, N in table
Excerpt: Next, we investigated heterotypic interactions of the TLRs. We specifically studied TLR2, TLR1, and TLR6 because they are cell surface expressed receptors known to form functional heterodimers. To determine the ability of these three cell surface TLRs to have heterotypic interactions within its family, we studied the ability of the TLR1, TLR2, and TLR6 TMDs to interact with the TLR receptors also expressed at the cell surface; namely, TLR1, TLR2, TLR4, TLR5, TLR6, and TLR10. We monitored these interactions using a dominant-negative ToxR assay (Fig. S1B) which works by having a second TMD expressed with a non-functional ToxR* intracellular domain. This ToxR* domain is incapable of binding the ctx promoter making any interactions with this second expressed TMD unable to produce the reporter enzyme. As such, any interaction between the functional ToxR and non-functional ToxR* TMDs will result in a reduction in signal output.
Figure 3 Cell- Surface Toll-like Recptor Heterotypic Interactions. (A) A dominant-negative ToxR assay was used to study heterotypic interactions of the cell-surface TLRs. Two TLR TMDs were encoded in the FHK12 E.coli reporter strain, one with a functional ToxR domain (dominant phenotype) and one with a nonfunctional ToxR* domain (negative phenotype). Interaction between the two different TMDs leads to a reduction in signal from that seen for homotypic interactions. The TMDs for GpA, TLR1, TLR2, and TLR6 were used with the functional ToxR domain while TMDs for poly-Leucine, TMD5, integrin αIIb, TLR1, TLR2, TLR4, TLR5, TLR6, and TLR10 were used with the nonfunctional ToxR* domain. Interactions were most prominent for the TLRs known to have heterotypic interactions – TLR2-TLR1 and TLR2-TLR6. […] We also saw interaction with the same TMD further validating the homotypic interactions. […] Each dominant phenotype was done in 3 technical replicates with each negative phenotype and >6 measurements made for each replicate. Error bars depict the standard error of the mean (n- Tables S3, S5, S7, S9). Western blots staining for MBP were performed to monitor expression levels of the constructs with the upper band being functional ToxR chimeras and the lower band being nonfunctional ToxR* chimeras – (B) GpA, (C) TLR1, (D) TLR2, and (E) TLR6. Significant differences for the same dominant phenotype were determined by use of the Tukey-Kramer test.
For heterotypic interactions one plasmid containing a functional ToxR domain (200 ng) and a second plasmid containing a non-functional ToxR* domain (200 ng) were co-transformed into chemically competent FHK12 E. coli (400 µL) by incubating on ice for 30 min, heat shock at 42°C for 90 s, incubation on ice for 2 min, and addition of SOC media (1600 µL) followed by incubation with shaking for 1 h at 37°C. This transformation mixture (50 µL) was then used to spread LB-agar plates containing cholaramphenicol (30 µg/mL), kanamycin (33 µg/mL), and ampicillin (100 µg/mL) and grown overnight at 37°C. Single colonies were selected from the plates and grown in 5 mL LB media containing cholaramphenicol (30 µg/mL), kanamycin (33 µg/mL), ampicillin (100 µg/mL), and arabinose (0.0025%) overnight (16–20 h) with shaking at 37°C. Analysis of activity was monitored as described in homotypic ToxR assays. Western blotting was done in the same manner as the homotypic ToxR assay with one band appearing for the functional ToxR construct and a second band for the nonfunctional ToxR* construct. Data were normalized to poly-Leu* Miller Units and corrected for varying protein expression levels using ImageJ (NIH) as previously reported.

Substance	Mean homotypic TMD interaction (ToxR) [1]	Mean TLR2-TMD* heterotypic interaction (ToxR signal) [2]
TLR6*: TLR6 TMD chimera with nonfunctional ToxR* domain (negative phenotype) (GNRASITLLIVTIGATMLVLAVTVTSLCIYLGSLIN; also: fused to non-functional ToxR* (S87H) and maltose binding protein, ends not given here)	0.5764	0.2588
TLR1*: TLR1 TMD chimera with nonfunctional ToxR* domain (negative phenotype) (GNRASITLLIVTIVATMLVLAVTVTSLCSYLGSLIN; also: fused to non-functional ToxR* (S87H) and maltose binding protein, ends not given here)	0.4775	0.2198
TLR2*: TLR2 TMD chimera with nonfunctional ToxR* domain (negative phenotype) (GNRASALVSGMCCALFLLILLTGVLCGSLIN; cysteine pairing not given here; also: fused to non-functional ToxR* (S87H) and maltose binding protein, ends not given here)	0.7829	0.1930
